In patent publication US20220152154A1, “GROWTH DIFFERENTIATION FACTOR 15 COMBINATION THERAPY” (Amgen Inc., priority 2019, published 2022):

How the values were obtained:
[1] = Body weight change in DIO mice treated for 5 weeks; assay type: in vivo; set-up: key to Significance of Body Weight Change: ns: not significant; *: p < 0.05; **: p < 0.005; ***: p < 0.001; ****: p < 0.0001; conditions: subcutaneous; for Significance of Body Weight Change: male C57Bl/6 DIO mice, 2-way ANOVA with Dunnett's analysis
Description: (§1) Male C57Bl/6 DIO mice, 19-20 weeks old (13-14 weeks on high fat diet) at beginning of dosing, were placed into the following treatment groups: Group A—Vehicle, in which the animals were administered vehicle weekly; Group B—Dulaglutide, in which the animals were administered 0.1 mg/kg (2 nmol/kg) of dulaglutide twice per week; Group C—GIPR Ab, in which the animals were administered 5 mg/kg (33 nmol/kg) of antibody 2.63.1 (having a light and heavy chain sequence of SEQ ID NOs: 105 and 106, respectively) weekly and vehicle weekly (the latter being on the alternate dulaglutide dosing day); Group D—GDF15, in which the animals were administered 0.125 mg/kg (1 nmol/kg) of FcΔ10(−)-(G4S)4-GDF15 (SEQ ID NO: 39) (along with its heterodimerization partner, FcΔ10(+,K) (SEQ ID NO: 32)) weekly and vehicle weekly (the latter on the alternate dulaglutide dosing day); Group E—GDF15+Dulaglutide, in which the animals were administered 0.125 mg/kg (1 nmol/kg) of FcΔ10(−)-(G4S)4-GDF15) (along with its heterodimerization partner, FcΔ10(+,K)) weekly and 0.1 mg/kg (2 nmol/kg) of dulaglutide twice per week; Group F—GDF15+GIPR Ab, in which the animals were administered 0.125 mg/kg (1 nmol/kg) of FcΔ10(−)-(G4S)4-GDF15 (along with its heterodimerization partner, FcΔ10(+,K)) weekly and 5 mg/kg (33 nmol/kg) of antibody 2.63.1 weekly. The animals were dosed for 5 weeks with through subcutaneous injection.
Body weight was measured twice per week.

[2] = Food intake measured three consecutive days per week; assay type: in vivo; set-up: key: ns: not significant; *: p < 0.05; **: p < 0.005; ***: p < 0.001; ****: p < 0.0001; conditions: male C57Bl/6 DIO mice, 2-way ANOVA with Dunnett's analysis
Description: as §1

dulaglutide [reference compound]
Significance of Body Weight Change ([1]; D0): ns | Significance of Body Weight Change ([1]; D3): ns | Significance of Body Weight Change ([1]; D7): ns | Significance of Body Weight Change ([1]; D10): ** (p < 0.005) | Significance of Body Weight Change ([1]; D14): ** (p < 0.005) | Significance of Body Weight Change ([1]; D17): **** (p < 0.0001) | Significance of Body Weight Change ([1]; D21): *** (p < 0.001) | Significance of Body Weight Change ([1]; D31): *** (p < 0.001) | Significance of Body Weight Change ([1]; D35): *** (p < 0.001) | Significance of Body Weight Change ([1]; D-4): ns | change in body weight ([1]; five weeks after treatment, DIO mice): −1.96% | Significance of Food Intake Assay ([2]; D2): ns | Significance of Food Intake Assay ([2]; D8): ns | Significance of Food Intake Assay ([2]; D9): ns | Significance of Food Intake Assay ([2]; D10): ns | Significance of Food Intake Assay ([2]; D15): ns | Significance of Food Intake Assay ([2]; D16): ns | Significance of Food Intake Assay ([2]; D17): * (p < 0.05) | Significance of Food Intake Assay ([2]; D22): **** (p < 0.0001) | Significance of Food Intake Assay ([2]; D23): ns | Significance of Food Intake Assay ([2]; D24): ns | Significance of Food Intake Assay ([2]; D29): ns | Significance of Food Intake Assay ([2]; D30): ns | Significance of Food Intake Assay ([2]; D31): ns
